Measurements as given in PubChem BioAssay (NCI).
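Cultured in 96-well plates, cells were exposed to test compound for 48 hours across five concentrations. The concentration for full growth arrest is given as TGI.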

Key:
Experiment in all cases: growth of human tumour cells (NCI), 48 h
[1] = system: HCC-2998 colon
[2] = system: SK-OV-3 ovarian
[3] = system: SNB-78 CNS
[4] = system: SF-539 CNS
[5] = system: HT29 colon
[6] = system: SW-620 colon
[7] = system: SK-MEL-28 melanoma
[8] = system: U251 CNS
[9] = system: HOP-18 NSCLC
[10] = system: HCT-15 colon
[11] = system: SK-MEL-5 melanoma
[12] = system: SF-295 CNS
[13] = system: TK-10 renal
[14] = system: HOP-92 NSCLC
[15] = system: OVCAR-3 ovarian
[16] = system: UACC-257 melanoma
[17] = system: SK-MEL-2 melanoma
[18] = system: M19-MEL melanoma
[19] = system: COLO 205 colon
[20] = system: CCRF-CEM leukemia
[21] = system: ACHN renal
[22] = system: IGROV1 ovarian
[23] = system: LXFL 529 NSCLC
[24] = system: DLD-1 colon
[25] = system: MALME-3M melanoma
[26] = system: CAKI-1 renal
[27] = system: RPMI-8226 leukemia
[28] = system: RXF 393 renal
[29] = system: SNB-75 CNS
[30] = system: A498 renal
[31] = system: XF 498 CNS
[32] = system: OVCAR-4 ovarian
[33] = system: LOX IMVI melanoma
[34] = system: HOP-62 NSCLC
[35] = system: OVCAR-8 ovarian
[36] = system: EKVX NSCLC
[37] = system: KM12 colon
[38] = system: NCI-H460 lung
[39] = system: UO-31 renal
[40] = system: HL-60(TB) leukemia
[41] = system: OVCAR-5 ovarian
[42] = system: KM20L2 colon
[43] = system: SNB-19 CNS
[44] = system: 786-0 renal
[45] = system: UACC-62 melanoma
[46] = system: DMS 114 small cell lung
[47] = system: NCI-H23 lung
[48] = system: MOLT-4 leukemia
[49] = system: K-562 leukemia
[50] = system: NCI-H226 lung
[51] = system: A549 NSCLC
[52] = system: HCT-116 colon
[53] = system: SF-268 CNS
[54] = system: M14 melanoma
[55] = system: SN12C renal
[56] = system: DMS 273 small cell lung

Q: How did the TGI [1] turn out when `CC(=O)NC1=C(NC(C)(C)C)C(=O)c2ccccc2C1=O` was run?
A: > 100 µM

Q: What about the TGI [2] of the same compound?
A: > 100 µM

Q: And the TGI [3]?
A: 99.1 µM

Q: What about the TGI [4] of the same compound?
A: 33.3 µM

Q: And the TGI [5]?
A: 49.7 µM

Q: And the TGI [6]?
A: 30.1 µM

Q: What about the TGI [7] of the same compound?
A: 43.1 µM

Q: And the TGI [8]?
A: > 100 µM

Q: What about the TGI [9] of the same compound?
A: 28.4 µM

Q: And the TGI [10]?
A: 34.5 µM

Q: And the TGI [11]?
A: 32.5 µM

Q: And the TGI [12]?
A: > 100 µM

Q: What about the TGI [13] of the same compound?
A: 33.5 µM

Q: What about the TGI [14] of the same compound?
A: 34.6 µM

Q: And the TGI [15]?
A: 33.1 µM

Q: And the TGI [16]?
A: 29.4 µM

Q: And the TGI [17]?
A: 42.9 µM

Q: And the TGI [18]?
A: 28.7 µM

Q: And the TGI [19]?
A: > 100 µM

Q: What about the TGI [20] of the same compound?
A: 9.28 µM

Q: What about the TGI [21] of the same compound?
A: > 100 µM

Q: And the TGI [22]?
A: 70.4 µM

Q: What about the TGI [23] of the same compound?
A: 31.7 µM

Q: And the TGI [24]?
A: 34.3 µM

Q: What about the TGI [25] of the same compound?
A: 33.9 µM

Q: And the TGI [26]?
A: 30 µM

Q: And the TGI [27]?
A: 37.1 µM

Q: And the TGI [28]?
A: 33.3 µM

Q: What about the TGI [29] of the same compound?
A: 26.5 µM

Q: What about the TGI [30] of the same compound?
A: 50.2 µM

Q: And the TGI [31]?
A: 23.1 µM

Q: And the TGI [32]?
A: 36.6 µM

Q: What about the TGI [33] of the same compound?
A: 30.8 µM

Q: And the TGI [34]?
A: > 100 µM

Q: What about the TGI [35] of the same compound?
A: 39.5 µM

Q: What about the TGI [36] of the same compound?
A: 99.2 µM

Q: What about the TGI [37] of the same compound?
A: 92.9 µM

Q: And the TGI [38]?
A: 41.1 µM

Q: And the TGI [39]?
A: 32.9 µM

Q: What about the TGI [40] of the same compound?
A: 5.6 µM

Q: What about the TGI [41] of the same compound?
A: > 100 µM

Q: What about the TGI [42] of the same compound?
A: 38 µM

Q: What about the TGI [43] of the same compound?
A: > 100 µM

Q: What about the TGI [44] of the same compound?
A: 11.6 µM

Q: And the TGI [45]?
A: 27.3 µM

Q: What about the TGI [46] of the same compound?
A: 54.3 µM

Q: What about the TGI [47] of the same compound?
A: 35.2 µM

Q: What about the TGI [48] of the same compound?
A: 26.7 µM

Q: And the TGI [49]?
A: 25.2 µM

Q: What about the TGI [50] of the same compound?
A: 27.6 µM

Q: And the TGI [51]?
A: > 100 µM

Q: What about the TGI [52] of the same compound?
A: 64.2 µM

Q: And the TGI [53]?
A: 55.6 µM

Q: What about the TGI [54] of the same compound?
A: 31.1 µM

Q: What about the TGI [55] of the same compound?
A: 34.8 µM

Q: And the TGI [56]?
A: 45.4 µM
